In ChEMBL document CHEMBL5614386, “Design, synthesis, and biological evaluation of novel 1-amido-2-one-4-thio-deoxypyranose as potential antitumor agents for multiple myeloma” (Bioorg Med Chem, 2024):
Calls of active or inactive are those of the source.

What was measured:
ARP-1 = assay: Anti-proliferative activity against human ARP-1 cells assessed as inhibition cell growth at 5 uM incubated for 72 hrs by CCK-8 assay; type: functional, cell-based
[1] = Toxicity in BALB/c mouse xenografted with human NCI-H929 cells assessed as effect on body weight at 50 mg/kg, sc administrated every other day for 13 days; type: organism-based; settings: in vivo, 312 h, time 13 day
NCI-H929 [2] = assay: Induction of DNA damage in human NCI-H929 cells assessed as increase gamma-H2AX level at 10 to 20 uM incubated for 24 hrs by Western blot analysis; type: functional, cell-based; settings: dose 10-20 µM
[3] = Toxicity in BALB/c nude mouse xenografted with human NCI-H929 cells assessed as side effect at 50 mg/kg, sc administrated every other day for 13 days by H and E staining based light microscopic analysis; type: organism-based; settings: in vivo, 312 h, time 13 day
[4] = Toxicity in BALB/c mouse assessed as histological change in kidney at 50 mg/kg, sc administrated every other day for 13 days by H and E staining based light microscopic analysis; type: organism-based; settings: in vivo, 312 h, time 13 day
[5] = Toxicity in BALB/c mouse assessed as histological change in liver at 50 mg/kg, sc administrated every other day for 13 days by H and E staining based light microscopic analysis; type: organism-based; settings: in vivo, 312 h, time 13 day
NCI-H929 [6] = assay: Antitumor activity against human NCI-H929 cells xenografted in BALB/c nude mouse assessed as Ki-67 activity in tumor by microscopy based analysis; type: functional, cell-based
[7] = Toxicity in BALB/c mouse assessed as histological change in tumor at 50 mg/kg, sc administrated every other day for 13 days by H and E staining based light microscopic analysis; type: organism-based; settings: in vivo, 312 h, time 13 day
[8] = Anti-proliferative activity against human ARP-1cells assessed as cell growth inhibition incubated for 72 hrs by CCK-8 assay; settings: ARP-1, 72 h
[9] = Toxicity in BALB/c nude mouse xenografted with human NCI-H929 cells assessed as drug tolerance at 50 mg/kg, sc administrated every other day for 13 days by H and E staining based light microscopic analysis; type: organism-based; settings: in vivo, 312 h, time 13 day
NCI-H929 [10] = assay: Antitumor activity against human NCI-H929 cells xenografted in BALB/C nude mouse model assessed as reduction in tumor growth at 50 mg/kg, sc administrated every other day for 13 days; type: functional, organism-based; settings: time 13.0 day
NCI-H929 [11] = assay: Anti-proliferative activity against human NCI-H929 cells assessed as cell growth inhibition incubated for 72 hrs by CCK-8 assay; settings: NCI-H929, 72 h
NCI-H929 [12] = assay: Anti-proliferative activity against human NCI-H929 cells assessed as inhibition cell growth at 5 uM incubated for 72 hrs by CCK-8 assay; type: functional, cell-based
[13] = Toxicity in BALB/c mouse assessed as histological change in heart at 50 mg/kg, sc administrated every other day for 13 days by H and E staining based light microscopic analysis; type: organism-based; settings: in vivo, 312 h, time 13 day

COc1ccc(SC2CC(=O)[C@H](NC(=O)c3ccc4c(c3)OCO4)O[C@@H]2COC(C)=O)cc1OC (some centres undefined)
active: Activity (ARP-1) | Activity (NCI-H929 [2]) | Activity (NCI-H929 [6]) | Activity (NCI-H929 [10]) | Activity (NCI-H929 [12])
2070 nM: IC50 [8]
1240 nM: IC50 (NCI-H929 [11])
Non-Toxic: Activity [1] | Activity [3] | Activity [4] | Activity [5] | Activity [7] | Activity [9] | Activity [13]
